Assay results: ChEMBL document CHEMBL3885861, “Open TG-GATES”

Organism: Rattus norvegicus
Experiment: Open TG-GATES - Regimen: Daily Repeat
Type: toxicity, organism-based, Sprague-Dawley
Set-up: regimen Daily Repeat, gender Male, age 6 weeks
Conditions: in vivo, po, 100 mg/kg, route gavage, dose level Middle; for APTT / Bas / Eos / Fbg / Hb / Ht / Lym / MCH / MCHC / MCV / Mono / Neu / PT / Plat / RBC / Ret / WBC: tissue Blood; for KIDNEY_L / KIDNEY_R / KIDNEY_TOTAL: tissue Kidney; for LIVER: tissue Liver; for A/G / ALP / ALT / AST / BUN / CRE / Ca / Cl / DBIL / GLC / IP / K / LDH / Na / PL / RALB / TBIL / TC / TG / TP / gamma-GTP: tissue Plasma

Compound `CC(=O)Nc1ccc2c(c1)Cc1ccccc1-2` [2-ACETYLAMINOFLUORENE] has a TERMINAL_BW (72 h, time 3 day) of 202.9 g, an APTT (72 h, time 3 day) of 20.1 s and a Bas (72 h, time 3 day) of 0.8%. The Eos (72 h, time 3 day) was 0.8%, the Fbg (72 h, time 3 day) was 260.6 mg/dL and the Hb (72 h, time 3 day) was 15.7 g/dL. For the same compound, the Ht (72 h, time 3 day) was 45.1%, the Lym (72 h, time 3 day) was 72.4% and the MCH (72 h, time 3 day) was 21.9 pg. The MCHC (72 h, time 3 day) was 34.9%, the MCV (72 h, time 3 day) was 62.7 fL and the Mono (72 h, time 3 day) was 2.8%. For the same compound, the Neu (72 h, time 3 day) was 22.4%, the PT (72 h, time 3 day) was 12.7 s and the Plat (72 h, time 3 day) was 133.7 x10_4/uL. It also gave an RBC (72 h, time 3 day) of 718.2 x10_4/ul, a Ret (72 h, time 3 day) of 3.6% and a WBC (72 h, time 3 day) of 85 x10_2/uL. For the same compound, the KIDNEY_L (72 h, time 3 day) was 1 g, the KIDNEY_R (72 h, time 3 day) was 0.9 g and the KIDNEY_TOTAL (72 h, time 3 day) was 1.9 g. The LIVER (72 h, time 3 day) was 8.8 g, the A/G (72 h, time 3 day) was 1.4 and the ALP (72 h, time 3 day) was 615.4 IU/L. It also gave an ALT (72 h, time 3 day) of 24 IU/L, an AST (72 h, time 3 day) of 70.8 IU/L and a BUN (72 h, time 3 day) of 11.4 mg/dL. For the same compound, the CRE (72 h, time 3 day) was 0.4 mg/dL, the Ca (72 h, time 3 day) was 10.1 mg/dL and the Cl (72 h, time 3 day) was 104.4 meq/L. It also gave a DBIL (72 h, time 3 day) of 0.076 mg/dL, a GLC (72 h, time 3 day) of 191 mg/dL and an IP (72 h, time 3 day) of 8.2 mg/dL. For the same compound, the K (72 h, time 3 day) was 4.3 meq/L, the LDH (72 h, time 3 day) was 220.8 IU/L and the Na (72 h, time 3 day) was 141.6 meq/L. It also gave a PL (72 h, time 3 day) of 86.2 mg/dL, an RALB (72 h, time 3 day) of 2.9 g/dL and a TBIL (72 h, time 3 day) of 0.1 mg/dL. For the same compound, the TC (72 h, time 3 day) was 45.4 mg/dL, the TG (72 h, time 3 day) was 47.6 mg/dL and the TP (72 h, time 3 day) was 5 g/dL. For the same compound, the gamma-GTP (72 h, time 3 day) was 1.2 IU/L, the TERMINAL_BW ([…], time 7 day) was 214.1 g and the TERMINAL_BW ([…], time 14 day) was 247.1 g. For the same compound, the TERMINAL_BW ([…], time 28 day) was 286 g, the APTT ([…], time 7 day) was 20.2 s and the Bas ([…], time 7 day) was 0.8%. For the same compound, the Eos ([…], time 7 day) was 0.6%, the Fbg ([…], time 7 day) was 167.8 mg/dL and the Hb ([…], time 7 day) was 14.7 g/dL. For the same compound, the Ht ([…], time 7 day) was 41.6%, the Lym ([…], time 7 day) was 83% and the MCH ([…], time 7 day) was 20.5 pg. The MCHC ([…], time 7 day) was 35.3%, the MCV ([…], time 7 day) was 58.1 fL and the Mono ([…], time 7 day) was 2.8%. For the same compound, the Neu ([…], time 7 day) was 12.2%, the PT ([…], time 7 day) was 13.8 s and the Plat ([…], time 7 day) was 174.6 x10_4/uL. The RBC ([…], time 7 day) was 715.8 x10_4/ul, the Ret ([…], time 7 day) was 1.2% and the WBC ([…], time 7 day) was 106.3 x10_2/uL. The APTT ([…], time 14 day) was 18.3 s, the Bas ([…], time 14 day) was 0.8% and the Eos ([…], time 14 day) was 0%. The Fbg ([…], time 14 day) was 106.8 mg/dL, the Hb ([…], time 14 day) was 13.1 g/dL and the Ht ([…], time 14 day) was 38.5%. It also gave a Lym ([…], time 14 day) of 74.6%, an MCH ([…], time 14 day) of 19.7 pg and an MCHC ([…], time 14 day) of 34.1%. It also gave an MCV ([…], time 14 day) of 57.7 fL, a Mono ([…], time 14 day) of 3% and a Neu ([…], time 14 day) of 21%. For the same compound, the PT ([…], time 14 day) was 15.2 s, the Plat ([…], time 14 day) was 144.4 x10_4/uL and the RBC ([…], time 14 day) was 667 x10_4/ul. The Ret ([…], time 14 day) was 6.3%, the WBC ([…], time 14 day) was 169.9 x10_2/uL and the APTT ([…], time 28 day) was 22.1 s. The Bas ([…], time 28 day) was 0.2%, the Eos ([…], time 28 day) was 0% and the Fbg ([…], time 28 day) was 74.4 mg/dL. The Hb ([…], time 28 day) was 13.6 g/dL, the Ht ([…], time 28 day) was 40.8% and the Lym ([…], time 28 day) was 61.6%. For the same compound, the MCH ([…], time 28 day) was 20.5 pg, the MCHC ([…], time 28 day) was 33.4% and the MCV ([…], time 28 day) was 61.3 fL. The Mono ([…], time 28 day) was 2.8%, the Neu ([…], time 28 day) was 34.2% and the PT ([…], time 28 day) was 18.8 s. It also gave a Plat ([…], time 28 day) of 149.9 x10_4/uL, an RBC ([…], time 28 day) of 667.6 x10_4/ul and a Ret ([…], time 28 day) of 6.6%. It also gave a WBC ([…], time 28 day) of 220.7 x10_2/uL, a KIDNEY_L ([…], time 7 day) of 1 g and a KIDNEY_R ([…], time 7 day) of 0.9 g. The KIDNEY_TOTAL ([…], time 7 day) was 1.9 g, the KIDNEY_L ([…], time 14 day) was 1.1 g and the KIDNEY_R ([…], time 14 day) was 1.1 g. The KIDNEY_TOTAL ([…], time 14 day) was 2.2 g, the KIDNEY_L ([…], time 28 day) was 1.3 g and the KIDNEY_R ([…], time 28 day) was 1.3 g. It also gave a KIDNEY_TOTAL ([…], time 28 day) of 2.5 g, an LIVER ([…], time 7 day) of 9.2 g and an LIVER ([…], time 14 day) of 10.6 g. For the same compound, the LIVER ([…], time 28 day) was 11.7 g, the A/G ([…], time 7 day) was 1.5 and the ALP ([…], time 7 day) was 822.2 IU/L. It also gave an ALT ([…], time 7 day) of 33.8 IU/L, an AST ([…], time 7 day) of 83.4 IU/L and a BUN ([…], time 7 day) of 11.4 mg/dL. For the same compound, the CRE ([…], time 7 day) was 0.4 mg/dL, the Ca ([…], time 7 day) was 9.8 mg/dL and the Cl ([…], time 7 day) was 105.4 meq/L. For the same compound, the DBIL ([…], time 7 day) was 0.098 mg/dL, the GLC ([…], time 7 day) was 170.6 mg/dL and the IP ([…], time 7 day) was 6 mg/dL. For the same compound, the K ([…], time 7 day) was 4.1 meq/L, the LDH ([…], time 7 day) was 274.8 IU/L and the Na ([…], time 7 day) was 139.8 meq/L. For the same compound, the PL ([…], time 7 day) was 93 mg/dL, the RALB ([…], time 7 day) was 2.6 g/dL and the TBIL ([…], time 7 day) was 0.2 mg/dL. For the same compound, the TC ([…], time 7 day) was 37.6 mg/dL, the TG ([…], time 7 day) was 75.2 mg/dL and the TP ([…], time 7 day) was 4.4 g/dL. It also gave a gamma-GTP ([…], time 7 day) of 1 IU/L, an A/G ([…], time 14 day) of 1.3 and an ALP ([…], time 14 day) of 791.2 IU/L. For the same compound, the ALT ([…], time 14 day) was 41 IU/L, the AST ([…], time 14 day) was 83.6 IU/L and the BUN ([…], time 14 day) was 13.6 mg/dL. The CRE ([…], time 14 day) was 0.5 mg/dL, the Ca ([…], time 14 day) was 9.6 mg/dL and the Cl ([…], time 14 day) was 103.4 meq/L. It also gave a DBIL ([…], time 14 day) of 0.6 mg/dL, a GLC ([…], time 14 day) of 157 mg/dL and an IP ([…], time 14 day) of 7.8 mg/dL. The K ([…], time 14 day) was 4.1 meq/L, the LDH ([…], time 14 day) was 206 IU/L and the Na ([…], time 14 day) was 141 meq/L. For the same compound, the PL ([…], time 14 day) was 104.8 mg/dL, the RALB ([…], time 14 day) was 2.3 g/dL and the TBIL ([…], time 14 day) was 0.7 mg/dL. It also gave a TC ([…], time 14 day) of 43.4 mg/dL, a TG ([…], time 14 day) of 64.6 mg/dL and a TP ([…], time 14 day) of 4.1 g/dL. The gamma-GTP ([…], time 14 day) was 2 IU/L, the A/G ([…], time 28 day) was 1.1 and the ALP ([…], time 28 day) was 1005.4 IU/L. It also gave an ALT ([…], time 28 day) of 58.8 IU/L, an AST ([…], time 28 day) of 126.6 IU/L and a BUN ([…], time 28 day) of 12.4 mg/dL. The CRE ([…], time 28 day) was 0.4 mg/dL, the Ca ([…], time 28 day) was 8.9 mg/dL and the Cl ([…], time 28 day) was 104.6 meq/L. The DBIL ([…], time 28 day) was 1.2 mg/dL, the GLC ([…], time 28 day) was 146 mg/dL and the IP ([…], time 28 day) was 6.7 mg/dL. It also gave a K ([…], time 28 day) of 3.9 meq/L, an LDH ([…], time 28 day) of 264.4 IU/L and a Na ([…], time 28 day) of 141 meq/L. For the same compound, the PL ([…], time 28 day) was 128.8 mg/dL, the RALB ([…], time 28 day) was 2 g/dL and the TBIL ([…], time 28 day) was 1.6 mg/dL. The TC ([…], time 28 day) was 55.4 mg/dL, the TG ([…], time 28 day) was 76.2 mg/dL and the TP ([…], time 28 day) was 3.9 g/dL. For the same compound, the gamma-GTP ([…], time 28 day) was 9.6 IU/L.
